# Data reported in PMC8235719, “New RAD51 Inhibitors to Target Homologous Recombination in Human Cells” (Genes, 2021).
# Entries after “also recorded” stand apart in the source; their conditions may differ.
# Experiments:
# [1] = test system: HR in human U-2 OS IndDR-GFP cells; assay: Inducible I-SceI DR-GFP assay (IndDR-GFP), inhibition of HR; type: cell-based
# Procedure: Exponentially growing U-2 OS IndDR-GFP cells were seeded at a density of 2 × 10^5 cells/well into 6-well plates with DMEM media containing 80 µg/mL G418 and indicated concentrations of RAD51i(s). For I-SceI induced samples, the media were supplemented with 0.5 µM Shield1 (Clontech, Mountain View, CA, USA) with 100 nM triamcinolone acetonide (Sigma, St. Louis, MO, USA). After 24 h of incubation, the media were removed, cells were washed with the DMEM, and the incubation continued for 48 h in DMEM containing 100 units/mL penicillin, 100 µg/mL streptomycin, and 80 µg/mL G418. Then, cells were trypsinized, trypsin solution was neutralized with an equal volume of media, and 10% formaldehyde solution in PBS was added for fixation to reach a final concentration of formaldehyde of 3.3%. The yield of GFP-positive cells indicative of HR activity was measured by flow cytometry with the Guava easyCyte system, and the data were analyzed with the InCyte program (Millipore; Burlington, VT, USA).
# [2] = test system: MCF 10A cells; assay: Cell viability assay (Guava ViaCount flow cytometry), MCF 10A; type: cell-based, human
# Procedure: For all cell viability experiments, except experiments involving MMS treatment, cells were seeded into the media containing indicated concentrations of tested compounds or corresponding amounts of DMSO in controls. The concentration of DMSO in media was 0.1%. MDA-MB-231 cells were seeded into 24-well plates at 3.5 × 10^4 cells/well for cells for a 4-day treatment or at 5000 cells/well for a 10-day treatment. MCF 10A cells were seeded into 24-well plates at 1.5 × 10^4 cells/well for a 4-day treatment or at 500 cells/well for a 10-day treatment. In the case of 10-day treatments, the media with compounds were renewed twice on the 4th and the 7th days of treatments. After completion of the treatments, cells were harvested, and their viability was determined by flow cytometry with Guava ViaCount reagent (Luminex; Austin, TX USA). Data were analyzed using the Guava ViaCount software (Millipore; Burlington, VT, USA). The IC50 values were calculated using the GraphPad Prism 5 software (San Diego, CA, USA).
# [3] = test system: RAD51 foci in U-2 OS IndDR-GFP cells; assay: RAD51 foci formation (immunofluorescence); type: cell-based, human; details: 30 µM
# Procedure: (§1) U-2 OS IndDR-GFP cells were seeded into 8-well polystyrene vessel culture slides at 5 × 10^4 cells/well. The next day, cells were pretreated with B02-iso or 0.1% DMSO (for control cells) for 1 h, followed by the treatment with 5 µM cisplatin for 4 h or left untreated (for control cells). After 4 h of incubation, cells were placed on ice, washed with PBS buffer (twice, 5 min each), pretreated with 0.5% Triton X-100 for 5 min, washed with PBS (twice, 5 min each). Cells were removed from ice and fixed with 4% methanol-free formaldehyde (Pierce; Waltham, […], USA) in PBS for 10 min. Cells were washed with PBS (twice, 5 min each), placed on ice, and permeabilized with 1% Triton X-100 in PBS for 10 min. Cells were removed from ice, washed with PBS (once, 5 min), blocked with a blocking buffer (5% BSA (Bovine Serum Albumin) in PBS) for 30 min, and incubated with rabbit polyclonal RAD51 antibody (1:1000, GeneTex, GTX100469) and mouse monoclonal anti-phospho-histone H2A.X (Ser 139) antibody (1:20,000, clone JBW301, Millipore 05-636) in blocking buffer, containing 0.3% Triton X-100 overnight at 4 °C. […] For foci quantification, 50 cells were chosen for each treatment condition at random, and foci number was counted using ImageJ software. […]
# [4] = test system: γ-H2A.X foci in U-2 OS IndDR-GFP cells; assay: γ-H2A.X foci formation (immunofluorescence); type: cell-based, human; details: indicated concentrations, cisplatin-treated cells
# Procedure: as §1
# [5] = test system: RAD51 expression in U-2 OS IndDR-GFP cells; assay: RAD51 expression level by Western blotting; type: cell-based, human; details: 4 µM, 24 h
# Procedure: Protein concentrations in the nuclear and whole-cell extracts were determined by Bradford assay (Bio-Rad), and the equivalent protein amounts were subjected to electrophoresis in 12% SDS-Polyacrylamide gels (29:1) in Tris-Glycine-SDS buffer. After gel-electrophoresis, proteins were transferred to PVDF membranes (Amersham, Piscataway, NJ, USA) using Mini Trans-Blot Cell (BioRad, Hercules, CA, USA) at 80V for 40 min. PVDF membranes were washed in TBS and blocked with a blocking buffer (5% nonfat dry milk in TBS-T) for 1 h. Anti-RAD51 rabbit polyclonal antibody (1:1000, GeneTex, GTX100469), anti-FKBP12 monoclonal mouse antibody (1:100, BD Biosciences; Franklin lakes, NJ, USA, 610808) for the detection of ddSceGR, and anti-nucleolin mouse monoclonal antibody (1:1000, Santa Cruz Biotechnology; Dallas, Texas, sc-17826) were applied overnight in a blocking buffer at 4 °C. […] Signal was detected with SuperSignal West Pico Plus chemiluminescent substrate (Thermo Scientific; Waltham, […], USA) with a G:B0X6 imaging system (Syngene; Bangalore, India). Band intensities were quantified with the GeneTools software (Syngene; Bangalore, India).
# IndDR-GFP cells. […] 10 µg of protein lysates were loaded and analyzed by SDS-PAGE. […]
compound,measurement,setting,value
O=c1nc(/C=C/c2cccnc2)n(Cc2ccccc2)c2ccccc12 [B02-iso],IC50,"[1]; Homo sapiens, U2OS, U-2 OS IndDR-GFP cells, 24 h with compound, ± SD, read-out: IC50, efficiency of HR inhibition in IndDR-GFP assay",4.3 ± 0.75 µM
same,Improvement of potency (HR inhibition) versus B02,[1]; IndDR-GFP IC50 of B02-iso vs B02,approximately four-fold
same,Times lower sensitivity of MCF 10A compared with MDA-MB-231,"[2]; 4-day treatment, ratio of IC50",approximately 3
same,IC50,"[2]; Homo sapiens, 96 h, MCF 10A, 4-day treatment",11.9 µM
same,Effect on cell viability in combination with olaparib,"[2]; MCF 10A, 1.8 µM B02-iso, same range of olaparib concentrations, 10-day treatment",did not decrease cell viability
same,"RAD51 foci formation, compound alone","[3]; 1 h, no cisplatin",did not significantly affect RAD51 foci formation
same,RAD51 foci formation induced by cisplatin,"[3]; 1 h pretreatment, then 5 µM cisplatin 4 h",almost completely eliminated RAD51 foci formation
same,Level of γ-H2A.X foci,[4],did not reduce the level of γ-H2A.X foci
same,RAD51 expression level,[5],does not change the RAD51 expression level; also recorded: did not change RAD51 expression level
